Values quoted from earlier work in patent US9446139B2, “Polymer-based compositions and conjugates of HIV entry inhibitors” (Nektar Therapeutics, priority 2004, dated 2016).

Experiments:
[1] = 90-mg single subcutaneous dose (N=12)

enfuvirtide
mean duration of each ISR (human, in vivo): around 7 days | patients reporting at least one instance of painful or troublesome local injection site reactions (ISR) (subcutaneous injection two times a day): 98% | mean elimination half life [1]: 3.8 ± 0.6 h | mean±SD apparent clearance [1]: 0.413 ± 0.0683 mL/min/kg
